In patent publication US12545639B2, “3-substituted phenylamidine compounds, preparation and use thereof” (PI INDUSTRIES LTD., priority 2019, dated 2026):

Key:
Alternaria solani = Alternaria solani (early blight of tomato/potato) in vitro test, radial growth on potato dextrose agar; assay type: cell-based; conditions: 168 h, 300 ppm in potato dextrose agar, 25° C., 60% relative humidity, seven days, read-out: control compared to the untreated check (radial growth)
Colletotrichum capsici = Colletotrichum capsici (anthracnose) in vitro test, radial growth on potato dextrose agar; assay type: cell-based; conditions: Colletotrichum truncatum, 168 h; 300 ppm in potato dextrose agar; 25° C., 60% relative humidity, seven days; read-out: control compared to the untreated check (radial growth)
Pyricularia oryzae [1] = experiment: whole plant or invertebrate; assay type: in vivo, Pyricularia oryzae on rice; conditions: read-out: Efficacy (% control), disease severity compared to the untreated check
Rhizoctonia solani = Rhizoctonia solani (rice sheath blight/potato black scurf) in vitro test, radial growth on potato dextrose agar; assay type: cell-based; conditions: 168 h, 300 ppm in potato dextrose agar, 25° C., 60% relative humidity, seven days, read-out: control compared to the untreated check (radial growth)
Pyricularia oryzae [2] = experiment: microbe, parasite or virus in culture; assay type: cell-based; conditions: 168 h, read-out: control compared to the untreated check (radial growth)
Botrytis cinerea = Botrytis cinerea (gray mold) in vitro test, radial growth on potato dextrose agar; assay type: cell-based; conditions: 168 h, 300 ppm in potato dextrose agar, 22° C., 90% relative humidity, seven days, read-out: control compared to the untreated check (radial growth)
Phakopsora pachyrhizi = Phakopsora pachyrhizi test in soybean, preventive, in vivo on plants; conditions: in Glycine max, read-out: Efficacy (% control), disease severity compared to the untreated check
[3] = system: Septoria lycopersici/Corynespora cassicola (CORYCA); experiment: Septoria lycopersici/Corynespora cassicola (CORYCA) (leaf spot of tomato) in vitro test, radial growth on potato dextrose agar; assay type: cell-based; conditions: 168 h, 300 ppm in potato dextrose agar, 25° C., 70% relative humidity, seven days, read-out: control compared to the untreated check (radial growth)
Fusarium culmorum = Fusarium culmorum (foot rot of cereals) in vitro test, radial growth on potato dextrose agar; assay type: cell-based; conditions: 168 h, 300 ppm in potato dextrose agar, 25° C., 60% relative humidity, seven days, read-out: control compared to the untreated check (radial growth)
How it was run: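 Compound in 0.3% DMSO mixed into potato dextrose agar, plates seeded with a 5 mm mycelial disc from an actively growing virulent culture. After seven days at 25° C and 60% relative humidity, radial growth was measured against untreated control.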

CCN(C)C=Nc1cc(Cl)cc(Cc2cccc(C)c2)c1C [Compound 94, N′-(5-chloro-2-methyl-3-(3-methylbenzyl)phenyl)-N-ethyl-N-methylformimidamide]
≥ 70%: inhibition of growth at 300 ppm (Alternaria solani) | inhibition of growth at 300 ppm (Colletotrichum capsici) | pest or weed control at 500 ppm (Pyricularia oryzae [1]) | inhibition of growth at 300 ppm (Rhizoctonia solani) | inhibition of growth at 300 ppm (Pyricularia oryzae [2]) | inhibition of growth at 300 ppm (Botrytis cinerea) | pest or weed control at 500 ppm (Phakopsora pachyrhizi) | inhibition of growth at 300 ppm [3]

CCN(C)C=Nc1cc(C)cc(Cc2ccc(F)c(Cl)c2)c1Cl [Compound 54, N′-(2-chloro-3-(3-chloro-4-fluorobenzyl)-5-methylphenyl)-N-ethyl-N-methylformimidamide]
≥ 70%: inhibition of growth at 300 ppm (Alternaria solani) | pest or weed control at 500 ppm (Pyricularia oryzae [1]) | inhibition of growth at 300 ppm (Rhizoctonia solani) | inhibition of growth at 300 ppm (Pyricularia oryzae [2]) | inhibition of growth at 300 ppm (Botrytis cinerea) | inhibition of growth at 300 ppm (Fusarium culmorum) | pest or weed control at 500 ppm (Phakopsora pachyrhizi) | inhibition of growth at 300 ppm [3]

CCN(C)C=Nc1cc(C)cc(NCc2ccccc2C(F)(F)F)c1Cl [Compound 181, N′-(2-chloro-5-methyl-3-((2-(trifluoromethyl)benzyl)amino)phenyl)-N-ethyl-N-methylformimidamide]
≥ 70%: inhibition of growth at 300 ppm (Alternaria solani) | inhibition of growth at 300 ppm (Colletotrichum capsici) | pest or weed control at 500 ppm (Pyricularia oryzae [1]) | inhibition of growth at 300 ppm (Rhizoctonia solani) | inhibition of growth at 300 ppm (Pyricularia oryzae [2]) | inhibition of growth at 300 ppm (Botrytis cinerea) | pest or weed control at 500 ppm (Phakopsora pachyrhizi)

CCN(C)C=Nc1cc(OC)cc(Cc2cccc(F)c2)c1C [Compound 277, N-ethyl-N′-(3-(3-fluorobenzyl)-5-methoxy-2-methylphenyl)-N-methylformimidamide]
≥ 70%: pest or weed control at 500 ppm (Pyricularia oryzae [1]) | pest or weed control at 500 ppm (Phakopsora pachyrhizi)

CCN(C)C=Nc1cc(C)cc(Cc2ccc(OC(F)(F)F)cc2)c1Cl [Compound 52, N′-(2-chloro-5-methyl-3-(4-(trifluoromethoxy)benzyl)phenyl)-N-ethyl-N-methylformimidamide]
≥ 70%: inhibition of growth at 300 ppm (Alternaria solani) | pest or weed control at 500 ppm (Pyricularia oryzae [1]) | inhibition of growth at 300 ppm (Rhizoctonia solani) | inhibition of growth at 300 ppm (Pyricularia oryzae [2]) | inhibition of growth at 300 ppm (Botrytis cinerea) | inhibition of growth at 300 ppm (Fusarium culmorum) | pest or weed control at 500 ppm (Phakopsora pachyrhizi) | inhibition of growth at 300 ppm [3]

CCN(C)C=Nc1cc(C)cc(Cc2ccc(C(F)(F)F)cc2)c1Cl [Compound 51, N′-(2-chloro-5-methyl-3-(4-(trifluoromethyl)benzyl)phenyl)-N-ethyl-N-methylformimidamide]
≥ 70%: inhibition of growth at 300 ppm (Alternaria solani) | inhibition of growth at 300 ppm (Colletotrichum capsici) | pest or weed control at 500 ppm (Pyricularia oryzae [1]) | inhibition of growth at 300 ppm (Rhizoctonia solani) | inhibition of growth at 300 ppm (Pyricularia oryzae [2]) | inhibition of growth at 300 ppm (Botrytis cinerea) | inhibition of growth at 300 ppm (Fusarium culmorum) | pest or weed control at 500 ppm (Phakopsora pachyrhizi) | inhibition of growth at 300 ppm [3]

CCN(C)C=Nc1cc(Cl)cc(N(C)c2ccccc2F)c1C [Compound 178, N′-(5-chloro-3-((2-fluorophenyl)(methyl)amino)-2-methylphenyl)-N-ethyl-N-methylformimidamide]
≥ 70%: inhibition of growth at 300 ppm (Alternaria solani) | pest or weed control at 500 ppm (Pyricularia oryzae [1]) | inhibition of growth at 300 ppm (Rhizoctonia solani) | inhibition of growth at 300 ppm (Pyricularia oryzae [2]) | inhibition of growth at 300 ppm (Botrytis cinerea) | pest or weed control at 500 ppm (Phakopsora pachyrhizi)

CCN(C)C=Nc1cc(C)cc(Cc2cc(C)cc(C)c2)c1Cl [Compound 55, N′-(2-chloro-3-(3,5-dimethylbenzyl)-5-methylphenyl)-N-ethyl-N-methylformimidamide]
≥ 70%: inhibition of growth at 300 ppm (Alternaria solani) | pest or weed control at 500 ppm (Pyricularia oryzae [1]) | inhibition of growth at 300 ppm (Rhizoctonia solani) | inhibition of growth at 300 ppm (Pyricularia oryzae [2]) | inhibition of growth at 300 ppm (Botrytis cinerea) | inhibition of growth at 300 ppm (Fusarium culmorum) | pest or weed control at 500 ppm (Phakopsora pachyrhizi) | inhibition of growth at 300 ppm [3]

CCN(C)C=Nc1cc(Cl)cc(N(C)c2cccc(Cl)c2)c1C [Compound 180, N′-(5-chloro-3-((3-chlorophenyl)(methyl)amino)-2-methylphenyl)-N-ethyl-N-methylformimidamide]
≥ 70%: inhibition of growth at 300 ppm (Alternaria solani) | pest or weed control at 500 ppm (Pyricularia oryzae [1])

CCN(C)C=Nc1cc(C)cc(Cc2ccccc2OC(F)(F)F)c1Cl [Compound 50, N′-(2-chloro-5-methyl-3-(2-(trifluoromethoxy)benzyl)phenyl)-N-ethyl-N-methylformimidamide]
≥ 70%: inhibition of growth at 300 ppm (Alternaria solani) | inhibition of growth at 300 ppm (Colletotrichum capsici) | pest or weed control at 500 ppm (Pyricularia oryzae [1]) | inhibition of growth at 300 ppm (Rhizoctonia solani) | inhibition of growth at 300 ppm (Pyricularia oryzae [2]) | inhibition of growth at 300 ppm (Botrytis cinerea) | pest or weed control at 500 ppm (Phakopsora pachyrhizi) | inhibition of growth at 300 ppm [3]
